Results reported in patent US20060029623A1, “Invert emulsions comprising at least one active agent sensitive to water and cosmetic/dermatological applications thereof” (GALDERMA RESEARCH & DEVELOPMENT, S.N.C., priority 2003, published 2006).

Assay: Maximum solubility of the vitamin D derivative in various excipients (excess active, stirring 12 h, filtration, HPLC assay)
Assay type: physicochemical
Method: In the table below are the solubility results for (4E,6E)-7-[3-(3,4-bishydroxymethylbenzyloxy)phenyl]-3-ethylnona4,6-dien-3-ol, a vitamin D analogue, in various excipients:
These maximum solubilities of (4E,6E)-7-[3-(3,4-bishydroxymethylbenzyloxy)phenyl]-3-ethylnona-4,6-dien-3-ol, a vitamin D analogue, were measured after stirring for 12 h with a magnetic stirrer bar, at room temperature, with an excess of active ingredient in the excipient to be analyzed. The suspension is then filtered (1.2 μm) and then the filtrate is assayed by HPLC.

Solubility, Concentration in % (w/w) (in Cetiol SN, room temperature): <0.1 % (w/w)
Solubility, Concentration in % (w/w) (in Crodamol IPP, room temperature): 0.2 % (w/w)
Solubility, Concentration in % (w/w) (in Ethanol Rectapur, room temperature): 23.3 % (w/w)
Solubility, Concentration in % (w/w) (in Eutanol G, room temperature): 0.5 % (w/w)
Solubility, Concentration in % (w/w) (in Glycerine, room temperature): <0.05 % (w/w)
Solubility, Concentration in % (w/w) (in Marcol 172, room temperature): <0.05 % (w/w)
Solubility, Concentration in % (w/w) (in Miglyol 812, room temperature): 0.4 % (w/w)
Solubility, Concentration in % (w/w) (in PEG 400, room temperature): 17.8 % (w/w)
Solubility, Concentration in % (w/w) (in Primol 352, room temperature): <0.05 % (w/w)
Solubility, Concentration in % (w/w) (in Propylene glycol, room temperature): 6.7 % (w/w)
Solubility, Concentration in % (w/w) (in Silicone DC 200, room temperature): <0.05 % (w/w)
Solubility, Concentration in % (w/w) (in Tegosoft TN, room temperature): 0.3 % (w/w)
Solubility, Concentration in % (w/w) (in Transcutol, room temperature): 27.0 % (w/w)
Solubility, Concentration in % (w/w) (solution pH 4, room temperature): <0.05 % (w/w)
Solubility, Concentration in % (w/w) (solution pH 7, room temperature): <0.05 % (w/w)
Compound: CC/C(=C\C=C\C(O)(CC)CC)c1cccc(OCc2ccc(CO)c(CO)c2)c1 [Compound 1, (4E,6E)-7-[3-(3,4-bishydroxymethyl-benzyloxy)phenyl]-3-ethylnona-4,6-dien-3-ol]
